Usually IC50 stands for the concentration that inhibits the measured activity by half. Usually MIC90 stands for the lowest concentration that inhibits either 90% of growth or 90% of the strains tested, depending on the study.

“And” between values parts separate entries of the source, which are not always exact repeats. Identical values can stand only once. Like-named read-outs stand apart in the source and are kept apart here. Where only a bound is given, the exact number is not on record here.

Data on 15 compounds can be found in article PMC6036174 (Frontiers in Microbiology, 2018).

A short description of series [1]: VERO cell cytotoxicity (resazurin). The following applies: African green monkey, VERO (ATCC CCL-81) normal epithelial cells. On the technique in general: The colour change of resazurin is a common sign of viable cells or microbes.
Series [2] in a line: A549 cell cytotoxicity (MTT). To be noted: human, A549 lung epithelial cells.
In series [3] the test system is M. tuberculosis H37Rv (ATCC 27294). Kind of series: resazurin microtiter assay, MIC against M. tuberculosis H37Rv. It is filed as cell-based, Mycobacterium tuberculosis. To be noted: 7 days 37°C, 90% inhibition of growth.
The subject of the next series is M. tuberculosis CDC1551. Put plainly: broth tube MIC (visible pellet) against M. tuberculosis CDC1551. The series is classed as cell-based, Mycobacterium tuberculosis. The following applies: M. tuberculosis CDC1551, 14 days 37°C, no visible pellet; for MIC: read-out: MIC100.
The next series has as its system M. smegmatis cells. Further details: method as in Wei et al., [2003]. The following applies: ref Wei et al., [2003]; cited from earlier work.
The next series has as its system M. tuberculosis H37Rv. The following applies: cited from earlier work.
On the set-up of series [4]: method as in Poggi et al. ([2013]). To be noted: descriptive; ref Poggi et al. ([2013]); cited from earlier work.
The test system of another series is G. mellonella larvae. Put plainly: in vivo toxicity in Galleria mellonella larvae. The following applies: for % Mortality: 72 h post-injection; for In vivo G. mellonella tolerance order in μmol / In vivo G. mellonella tolerance order in μmol (Normalized against no. of phens): rank; for In vivo G. mellonella tolerance order in μmol: 1st = best tolerated, from Table 2; for In vivo G. mellonella tolerance order in μmol (Normalized against no. of phens): normalized with respect to phen content. The method, then: G. mellonella larvae in the 6th developmental stage were used to determine the in vivo cytotoxicity of the test complexes (Kellett et al., [2011]; Desbois and Coote, [2012]; McCann et al., [2012]). Thirty healthy larvae, each weighing between 0.2 and 0.4 g and with no cuticle discolouration, were used for each experiment. Fresh solutions of the test complexes were prepared immediately prior to testing under sterile conditions. Test compounds (0.05 g) were dissolved in DMSO (1 mL) and added to sterile water (9 mL) to give a stock solution/suspension (5,000 μg/mL). Test solutions/suspensions were prepared from the corresponding stock solution using Millipore water only to dilute to the desired concentration and each compound was screened across the concentration range of 5,000–100 mg/L. Test solutions/suspensions (20 μL) were administered to the larvae by injection directly into the haemocoel through the last pro-leg. The base of the pro-leg can be opened by applying gentle pressure to the sides of the larvae and this aperture will re-seal after removal of the syringe without leaving a scar. Larvae were placed in sterile Petri dishes and incubated at 30°C for 72 h. The survival of the larvae was monitored every 24 h. Death was assessed by the lack of movement in response to stimulus together with discolouration of the cuticle. Three controls were employed in all assays. The first consisted of untouched larvae maintained at the same temperature as the test larvae. The second was larvae with the pro-leg pierced with an inoculation needle but no solution injected. The third control was larvae that were inoculated with 20 μL of sterile water.

The subject of the next series is MDR ATCC 49967. Further details: method as in Hoffman et al., [2013]. To be noted: ref Hoffman et al., [2013]; cited from earlier work.
Another series has as its system mammalian cancer cells. The arrangement: method as in Oliveira et al., [2004]. The following applies: ref Oliveira et al., [2004], read-out: IC50 cytotoxicity; cited from earlier work.
A further series concerns M. tuberculosis. Further details: method as in Oliveira et al., [2004]. To be noted: based on Na3[Fe(CN)5(INH)]·4H2O; ref Oliveira et al., [2004]; cited from earlier work.
Series [5] has as its system VERO (ATCC CCL-81) normal epithelial cells. Kind of series: VERO cell cytotoxicity (resazurin). The following applies: 24 h incubation, called CC50 in methods; for IC50: read-out: Cytotoxicity IC50 VERO cells.
For series [6], the system named is A549 lung epithelial cells. Kind of series: A549 cell cytotoxicity (MTT). To be noted: 48 h incubation, MTT, called CC50 in methods; for IC50: read-out: Cytotoxicity IC50 A549 cells.
The nature of series [7]: solubility in water (descriptive). The series is classed as physicochemical.
[8] abbreviates: Mycobacterium tuberculosis, 168 h, read-out: MIC90.
Setting [9] is: Mycobacterium tuberculosis, 336 h.
Where [10] appears, read: M. tuberculosis H37Rv, ref Hoffman et al., [2013].
Where [11] appears, read: M. tuberculosis H37Rv, ref Poggi et al. ([2013]).
Setting [12] is: M. tuberculosis H37Rv, ref Oliveira et al., [2014].
Where [13] appears, read: H37Rv, ref Segura et al. ([2014]).
Where [14] appears, read: 40 μg per larvae (133.33 mg/kg).
Setting [15] is: 100 μg per larvae (333.33 mg/kg).

Regarding `NNC(=O)c1ccncc1` [INH, Isoniazid, reference compound], in [1], the half-inhibitory concentration (IC50) at 24 h was 333 µg/mL and 2.43 mM. Also, the IC50 at 48 h in series [2] is 319 µg/mL and 2.33 mM. Moreover, in [3] (setting [8]), the MIC90 was 0.44 µM and 0.06 µg/mL. For the same compound, the MIC in the series with M. tuberculosis CDC1551 (setting [9]) was 0.44 µM and 0.06 µg/mL; in the series on M. smegmatis cells, > 30 mg/mL and > 218.76 mM.
For the compound `O=P([O-])(O)OP(=O)([O-])O.[Co+2].c1cnc2c(c1)ccc1cccnc12.c1cnc2c(c1)ccc1cccnc12` [[Co(phen)2(H2P2O7)]], the MIC with M. tuberculosis H37Rv (setting [10]) was 2.05 µM.
`NNC(=O)c1ccncc1.O.O.O.O=S(=O)([O-])[O-].[Cu+2]` [[Cu(INH)(H2O)]SO4·2H2O]: the solubility in water result in series [4] was “only very sparingly soluble in water”. For the same compound, the MIC in the series on M. tuberculosis H37Rv (setting [11]) is 2.2 µM.
`O.O=P([O-])(O)OP(=O)([O-])O.[Cu+2].c1cnc2c(c1)ccc1cccnc12` [[Cu(phen)(H2O)(H2P2O7)]]: the MIC in the series with M. tuberculosis H37Rv (setting [10]) was 71.53 µM.
For the compound `CNC(=S)N/N=C(\C)c1ccccn1.CNC(=S)N/N=C(\C)c1ccccn1.[Mn+2]` [[Mn(atc-Me)2]], the MIC in the series on M. tuberculosis H37Rv (setting [12]) was 50.69 µM.
Take `C/C(=N\NC(=S)Nc1ccccc1)c1ccccn1.C/C(=N\NC(=S)Nc1ccccc1)c1ccccn1.[Mn+2]` [[Mn(atc-Ph)2]]: the MIC in the series with M. tuberculosis H37Rv (setting [12]) is 1.31 µM.
On to `NC(N)=S.NC(N)=S.O=S(=O)([O-])C(F)(F)F.O=S(=O)([O-])C(F)(F)F.[Ag+].[Ag+].c1cnc2c(c1)ccc1cccnc12.c1cnc2c(c1)ccc1cccnc12` [[{Ag(phen)(μ-tu)}2]X2 (X = CF3 SO3-), [{Ag(phen)(μ-tu)}2]X2], for which, in the series on M. tuberculosis H37Rv (setting [13]), the MIC was 14.2 µM.
For the compound `NC(N)=S.NC(N)=S.O=[N+]([O-])[O-].O=[N+]([O-])[O-].[Ag+].[Ag+].c1cnc2c(c1)ccc1cccnc12.c1cnc2c(c1)ccc1cccnc12` [[{Ag(phen)(μ-tu)}2]X2 (X = NO3-), [{Ag(phen)(μ-tu)}2]X2], the MIC in the series with M. tuberculosis H37Rv (setting [13]) was 11.0 µM.
Turning to `c1cnc2c(c1)ccc1cccnc12` [phen, 1,10-phenanthroline, reference compound], the “% Mortality” value in the series with G. mellonella larvae (10 μg per larvae (33.33 mg/kg)) was 0%; with G. mellonella larvae (20 μg per larvae (66.67 mg/kg)) it was 80%; with G. mellonella larvae (setting [14]), 80%; with G. mellonella larvae (setting [15]), 100%. Further, the larvae survived entry with G. mellonella larvae (highest administered concentration 0.1 mg (333 mg/kg) per larvae) is given as “all of the larvae injected at this concentration with phen died”. In addition, the “In vivo G. mellonella tolerance order in μmol” value in the series with G. mellonella larvae was found to be 5th. Besides, the “In vivo G. mellonella tolerance order in μmol (Normalized against no. of phens)” value in the series with G. mellonella larvae came to 4th. In series [1], the IC50 at 24 h was > 10 µg/mL and > 55.5 µM. For the same compound, the half-maximal inhibitory concentration (IC50) at 48 h in [2] was 4.3 µg/mL and 23.9 µM. Besides, the MIC90 in series [3] (setting [8]) was 11.2 µg/mL and 61.9 µM. The MIC with M. tuberculosis CDC1551 (setting [9]) was 3 µg/mL and 16.6 µM.
As to `O=P([O-])([O-])OP(=O)([O-])[O-].[Co+2].[Co+2].c1cnc2c(c1)ccc1cccnc12.c1cnc2c(c1)ccc1cccnc12.c1cnc2c(c1)ccc1cccnc12.c1cnc2c(c1)ccc1cccnc12` [{[Co(phen)2]2(μ-P2O7)}], the MIC in the series on MDR ATCC 49967 was 2.41 µM.
As to `O=P([O-])([O-])OP(=O)([O-])[O-].[Cu+2].[Cu+2].c1cnc2c(c1)ccc1cccnc12.c1cnc2c(c1)ccc1cccnc12` [{[Cu(phen)]2(μ-P2O7)}], the MIC in the series on MDR ATCC 49967 is 2.80 µM.
Turning to [CoCl(INH)2(H2O)]Cl·2.5H2O, in series [4], the solubility in water entry is on record as “only very sparingly soluble in water”. In addition, in the series with M. tuberculosis H37Rv (setting [11]), the MIC is 0.41 µM.
Consider [Fe(CN)5(INH)]^3−, for which the IC50 in the series with mammalian cancer cells is over 54 µM. Moreover, in the series on M. tuberculosis, the MIC was 0.43 µM.
Consider “{[Cu(3,6,9-tdda)(phen)2]·3H2O·EtOH}n [compound 4]”, for which the “% Mortality” value in the series on G. mellonella larvae (10 μg per larvae (33.33 mg/kg)) came out at 0%; in the series on G. mellonella larvae (20 μg per larvae (66.67 mg/kg)), 80%; in the series with G. mellonella larvae (setting [14]), 90%; in the series with G. mellonella larvae (setting [15]) it was 90%. Besides, the “In vivo G. mellonella tolerance order in μmol” value in the series on G. mellonella larvae is reported as 8th. Further, the “In vivo G. mellonella tolerance order in μmol (Normalized against no. of phens)” value in the series on G. mellonella larvae is reported as 6th. The “Cytotoxicity IC50 VERO cells” value in [5] amounted to 5.85 µg/mL. Moreover, the results for the 50% inhibitory concentration (IC50) in series [5] and in series [6] were 7.86 µM and 1.42 µM, respectively. The “Cytotoxicity IC50 A549 cells” value in [6] worked out at 1.06 µg/mL. Moreover, the solubility in water result in [7] is listed as “water-soluble”. Further, the MIC90 in series [3] amounted to 10.03 mg/L; in series [3] (read-out: MIC90) it was 13.48 µM. Further, the MIC100 with M. tuberculosis CDC1551 worked out at 0.75 µg/mL. The MIC in the series on M. tuberculosis CDC1551 amounted to 1.01 µM.
Regarding “{[Mn(3,6,9-tdda)(phen)2]·3H2O·EtOH}n [compound 3]”, the “% Mortality” value in the series with G. mellonella larvae (10 μg per larvae (33.33 mg/kg)) worked out at 0%; in the series with G. mellonella larvae (20 μg per larvae (66.67 mg/kg)) it was 50%; in the series on G. mellonella larvae (setting [14]), 80%; in the series with G. mellonella larvae (setting [15]), 90%. For the same compound, in the series with G. mellonella larvae, the “In vivo G. mellonella tolerance order in μmol” value was 2nd. Further, in the series on G. mellonella larvae, the “In vivo G. mellonella tolerance order in μmol (Normalized against no. of phens)” value came out at 2nd. Moreover, the “Cytotoxicity IC50 VERO cells” value in [5] turned out to be 62.5 µg/mL. In addition, the IC50 in series [5] stood at 85 µM; in series [6], 356 µM. Moreover, the “Cytotoxicity IC50 A549 cells” value in series [6] is 261.67 µg/mL. Besides, the solubility in water result in series [7] is “water-soluble”. The MIC90 in [3] is 0.56 mg/L; in series [3] (read-out: MIC90), 0.76 µM. Besides, the MIC100 with M. tuberculosis CDC1551 was 0.75 µg/mL. Also, in the series on M. tuberculosis CDC1551, the MIC was determined as 1.02 µM.
